Assay results published in patent US11766443B2, “Cyclopentathiophene carboxamide derivatives as platelet activating factor receptor antagonists” (Boehringer Ingelheim International GmbH, priority 2021, dated 2023).

How the values were obtained:
[1] = chemical stability in acidic aqueous media (pH ca. 1.2), HPLC recovery; assay type: physicochemical; settings: acetonitrile/0.1 M aqueous HCl 2:3, pH ca. 1.2, 37° C.
Description: Degradation studies are used to simulate chemical stability of compounds in the acidic part of the gastro intestinal tract. The compounds of the invention show high chemical stability in acidic aqueous media (pH value ca. 1.2) what makes their application as medical drugs to treat human diseases less restricted and troublesome.
The chemical stability of the compounds of the invention at pH value of ca. 1.2 is determined as follows: Compound is dissolved in an HPLC vial in a mixture of acetonitrile/0.1 M aqueous HCl (ratio: 2:3; pH ca. 1.2) to get a concentration of approximately 0.25 mg/ml. The vial is then transferred into an HPLC autosampler system and maintained at a temperature of 37° C. A first sample is taken and injected immediately into a standard HPLC system with a UV DAD detector. A further samples is injected after 24 hours. Amount of degraded compound is measured by determining the recovery rate of compound [%] for the 24 h injection using an HPLC standard gradient method. Therefore the peak area of the main peak for the first injection (AUt0) is determined and set as 100%. Peak area of the main peak is determined also for the 24 h injection (AU24 h) and expressed as fraction of (AU24 h)/(AUt0)[%].

[2] = aqueous solubility in buffer (from DMSO stock, 24 h shaking, LC-UV); settings: pH 2.2, aqueous buffer, kinetic from dmso stock
Description: (§1) The aqueous solubility of the test compound is determined by comparing the amount dissolved in buffer to the amount in an ACN/water (1/1) solution. Starting from a 10 mM DMSO stock solution aliquots are diluted with ACN/water (1/1) or buffer, respectively. After 24 h of shaking, the solutions are filtrated and analyzed by LC-UV. The amount dissolved in buffer is compared to the amount in the ACN solution.
(§2) Solubility will usually be measured from 0.001 to 0.125 mg/mL at a DMSO concentration of 2.5%. If more than 90% of the compound is dissolved in buffer, the value is marked with “>”.

human PAFR = molecular target: T1, human PAFR (Homo sapiens, UniProt P25105); experiment: cellular HTRF IP1 endpoint assay: inhibition of PAFR activation by PAF C-16 ligand; assay type: cell-based; settings: HEK293 cells overexpressing human PAFR; PAF ligand 11 nM
T1 construct: expressed in transfected cells; host or cells: HEK293
Description: The ability of compounds of formula (I.0) to inhibit the activation of the PAF receptor (PAFR) by the PAF C-16 ligand (PAF) is determined using the following cellular HTRF IP1 assay (IP1 Gq assay kit from Cisbio, Cat. no.: 62IP1APEJ) in assay buffer (1×HBSS, 20 mM Hepes, pH 7.4, 50 mM LiCl and containing 0.1% (w/v) BSA):
HEK293 cells overexpressing human PAFR (produced in-house) are seeded into a Poly-D-Lysine coated 384 well white cell culture microtiter assay plate with lid (15.000 cells per well). Subsequently, the plates are incubated over night at 37° C./5% CO2. On the next day, cells are being washed and subsequently, various concentrations of the test compounds (compounds in 100% DMSO; final concentration of DMSO in wells is 1%) are added to the assay plate via Echo 555 acoustic liquid handler. Plates are then incubated with lid for 90 minutes at 37° C./5% CO2. Thereafter, PAF ligand (Cayman Chemical Company, Item no.: 60900) is added at a final concentration of 11 nM. Plates are then incubated with lid for 60 minutes at 37° C./5% CO2. Then, 5 μl per well of Anti-IP1-Anti body-Cryptate solution and 5 μL per well of IP1-d2 solution are added to all wells of the plate and the plate is incubated for another 60 minutes light protected at room temperature. The emissions at 620 nm and 665 nm (Excitation wavelength: 320 nm) are measured using an Envision Reader (PerkinElmer).

physchem = settings: pH 2.2, aqueous buffer, kinetic from dmso stock
Description: as §1, §2

T1 sequence (P25105 whole entry): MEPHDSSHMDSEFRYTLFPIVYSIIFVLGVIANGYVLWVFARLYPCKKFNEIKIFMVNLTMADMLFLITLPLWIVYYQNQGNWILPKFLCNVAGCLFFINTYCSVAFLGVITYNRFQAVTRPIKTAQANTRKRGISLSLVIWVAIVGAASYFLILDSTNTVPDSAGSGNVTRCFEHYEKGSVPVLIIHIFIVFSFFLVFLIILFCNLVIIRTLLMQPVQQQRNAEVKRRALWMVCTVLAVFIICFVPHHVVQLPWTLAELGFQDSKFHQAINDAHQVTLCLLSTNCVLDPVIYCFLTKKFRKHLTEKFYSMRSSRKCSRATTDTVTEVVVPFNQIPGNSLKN

| SMILES | Amount of degradation after 24 h [1] | solubility at 24 h [2] | IC50 (human PAFR) | solubility at 24 h (physchem) |
| --- | --- | --- | --- | --- |
| Cc1nnc2n1-c1sc3c(c1[C@H](c1ccccc1Cl)NC2)C[C@H](C(=O)N1CCOCC1)C3 [Example 2, (9R,13S)-9-(2-Chlorophenyl)-3-methyl-13-(morpholine-4-carbonyl)-16-thia-2,4,5,8-tetraazatetracyclo[8.6.0.0^2,6.0^11,15]-hexadeca-1(10),3,5,11(15)-tetraene] | 1% | > 117 µg/mL | 30 nM | – |
| CCCNC(=O)[C@@H]1Cc2sc3c(c2C1)[C@H](c1ccccc1Cl)NCc1nnc(C)n1-3 [Example 19] | 3% | > 111 µg/mL | 3 nM | – |
| Cc1nnc2n1-c1sc3c(c1[C@H](c1ccccc1Cl)NC2)C[C@H](C(=O)NCCOC(F)(F)F)C3 [Example 17] | 2% | > 114 µg/mL | 2.8 nM | – |
| Cc1nnc2n1-c1sc3c(c1[C@H](c1ccccc1Cl)NC2)C[C@H](C(=O)N1CCOC(C)(C)C1)C3 [Example 26] | 2.5%^ | > 136 µg/mL | 4.9 nM | – |
| Cc1nnc2n1-c1sc3c(c1C(c1ccccc1Cl)NC2)CC(C(=O)N1CCCC2(CC2)C1)C3 (centres unmarked) [Example 66, 13-{5-Azaspiro[2.5]octane-5-carbonyl}-9-(2-chlorophenyl)-3-methyl-16-thia-2,4,5,8-tetraazatetracyclo-[8.6.0.0^2,6.0^11,15]hexadeca-1(10),3,5,11(15)-tetraene] | – | – | 2.7 nM | > 124 µg/mL |
| Cc1nnc2n1-c1sc3c(c1[C@H](c1ccccc1Cl)NC2)C[C@H](C(=O)NC1CCC1)C3 [Example 28] | 0.5%^ | > 142 µg/mL | 1.7 nM | – |
| Cc1nnc2n1-c1sc3c(c1[C@H](c1ccccc1Cl)NC2)C[C@H](C(=O)N1CC2CC1C2)C3 [Example 21] | 1% | > 105 µg/mL | 9.1 nM | – |
